Experimental data reported in the supplement of paper PMC11208160.

assay: recombinant barcode read abundance after kanamycin selection (control-corrected) (log10(CPM+1)); higher = more efficient recombination; sequences stand for … in AGTGCAGAGAAAATCGGCCAGTTTTCTCTGCCTGCAGTCCGCATGCCGT…AGATTTATGCAGCGGACTGCCTTTCTCCCAAAGTGATAAACCGGACAGTATCATGGACCGGTTTTCCCGGTAATCCGTATTTGCAAGGTTGGTTTCACT; site = the 11-nt target
Outline: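 In E. coli, a pooled library matched targets to IS621 bridge RNA target-binding loops and was introduced alongside a donor plasmid. Cells went onto chloramphenicol/ampicillin/kanamycin with 0.1 mM IPTG or onto chloramphenicol/ampicillin LB agar as control, in duplicate. Recombination efficiency, from recombinant-junction barcodes as counts per million, is averaged and control-corrected. It is reported as log10(CPM+1).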
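Note: IS621 recombinase and bridge RNA in Escherichia coli cells.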

Sequence | recombinant barcode read abundance (log10)
GCTCAGCCTTGGGTTCTAACCTGTTGCCT (site GCTCAGACTAG) | 0.0954
TTACAATCTTGGGTTCTAACCTGTTGCCT (site TTACAATCTAG) | 0.764
TTGCGGCCTTGGGTTCTAACCTGTTGCAG (site CAAACTACTTG) | 0.0363
GCCGACACTTGGGTTCTAACCTGTTGCCT (site GCCGAGACTAG) | 0.284
GTCGTCACTTGGGTTCTAACCTGTTGCCT (site GTCGTCTCTAG) | 0.0772
GAGGGTCCTTGGGTTCTAACCTGTTGCCT (site GAGGGTCCTAC) | 0.133
TACTACCCTTGGGTTCTAACCTGTTGCCA (site TAGTATCCTTG) | 0.0944
AACTAATCTTGGGTTCTAACCTGTTGCCT (site AACTGATCTAG) | 0.0845
CGCCAGCCTTGGGTTCTAACCTGTTGCCT (site CGCCTGCCTAG) | 0
AGCTTGCCTTGGGTTCTAACCTGTTGCAG (site CATAGCGCTAG) | 0.277
AGTAAGCCTTGGGTTCTAACCTGTTGCAG (site AGTAAGCCTCT) | 1.12
CGAACGACTTGGGTTCTAACCTGTTGCTT (site CGAACGACTAA) | 0.0324
GTAAACTCTTGGGTTCTAACCTGTTGCCT (site GTGAACTCTAG) | 0.0821
TGGCCACCTTGGGTTCTAACCTGTTGCCT (site TGGCCACCTAG) | 1.6
TGGACTACTTGGGTTCTAACCTGTTGCTC (site CTACAACCTCT) | 0.209
TGGCAGTCTTGGGTTCTAACCTGTTGCCT (site TGGCAGTCTAG) | 0.413
ATCTATCCTTGGGTTCTAACCTGTTGCAT (site ATCTATCCTAT) | 0.198
AGTAAGCCTTGGGTTCTAACCTGTTGCCT (site AGTCAGCCTAG) | 0.243
AAACTTACTTGGGTTCTAACCTGTTGCCT (site AGATTTACTAG) | 0.0102
GAGAGTACTTGGGTTCTAACCTGTTGCAT (site GAGGGTACTAT) | 0.654
CTTGGACCTTGGGTTCTAACCTGTTGCCT (site CTTGGAGCTAG) | 0.0408
TACGTGGCTTGGGTTCTAACCTGTTGCCT (site TACGAGGCTAG) | 0.182

Sequence | recombinant barcode read abundance (log10)
AACTTCACTTGGGTTCTAACCTGTTGCCT (site AACTTCACTAG) | 1.12
AGAAATTCTTGGGTTCTAACCTGTTGCCT (site AGTAATTCTAG) | 0.0316
CCTTCTACTTGGGTTCTAACCTGTTGCCT (site CCTTCTACTTA) | 0
ACCATCACTTGGGTTCTAACCTGTTGCCT (site ACAAGCACTAG) | 0.103
CCGCCAGCTTGGGTTCTAACCTGTTGCCT (site CCGCCGGCTAG) | 0.0999
ATGCGAGCTTGGGTTCTAACCTGTTGCGG (site ATGCGAGCTCA) | 0.873
GGGCCTACTTGGGTTCTAACCTGTTGCTA (site GGGCCTACTCA) | 0.642
TCGGATACTTGGGTTCTAACCTGTTGCAT (site TCGGATACTAG) | 0.173
TCCGCTACTTGGGTTCTAACCTGTTGCCT (site TCCGCTGCTAG) | 0.0537
CTTCGGGCTTGGGTTCTAACCTGTTGCAG (site CTTCGGGCTCT) | 1.96
CTGCTCCCTTGGGTTCTAACCTGTTGCGG (site CTGCTCCCTCC) | 0.36
CCGTGCCCTTGGGTTCTAACCTGTTGCTG (site CCGTGCCCTCA) | 1.62
ATTGCTCCTTGGGTTCTAACCTGTTGCTT (site ATTGCTCCTAA) | 0.106
TCAAAGCCTTGGGTTCTAACCTGTTGCTG (site TCACAGCCTCA) | 0.204
GCCCGTGCTTGGGTTCTAACCTGTTGCCT (site GCTCGTGCTAG) | 0.0122
TCTAAACCTTGGGTTCTAACCTGTTGCCT (site TCTCAACCTAG) | 0.0726
GACATACCTTGGGTTCTAACCTGTTGCCT (site GACATACCTAG) | 0.794
AATGCTCCTTGGGTTCTAACCTGTTGCCT (site AATGCTCCTAC) | 0.158
TGTCCACCTTGGGTTCTAACCTGTTGCCT (site CGTCCACCTAG) | 0.267
TCCGACCCTTGGGTTCTAACCTGTTGCAC (site TCCGTCCCTAT) | 0.0486
TAACGACCTTGGGTTCTAACCTGTTGCCT (site AAACGACCTAG) | 0
CTCTAGTCTTGGGTTCTAACCTGTTGCGT (site CTCTAGTCTAA) | 0.268

Sequence | recombinant barcode read abundance (log10)
TAGTAGTCTTGGGTTCTAACCTGTTGCCT (site TAGTAGTCTAT) | 0.108
CGAGATCCTTGGGTTCTAACCTGTTGCAT (site CGAGATCCTAT) | 1.29
TCCGATTCTTGGGTTCTAACCTGTTGCGT (site GCCTATTCTAC) | 0.19
AGCGCTTCTTGGGTTCTAACCTGTTGCCT (site AGCGCTTCTAG) | 0.454
TGTCAACCTTGGGTTCTAACCTGTTGCGT (site TGTCAACCTAC) | 1.02
TGGTATCCTTGGGTTCTAACCTGTTGCCT (site TGGTATTCTAG) | 0.358
CTAGACCCTTGGGTTCTAACCTGTTGCGG (site CTAGACCCTCC) | 2.56
AGGGCACCTTGGGTTCTAACCTGTTGCCA (site AGGGCACCTTG) | 1.26
ACTAAGACTTGGGTTCTAACCTGTTGCTG (site ACTAAGACTCA) | 1.96
CCTTAGACTTGGGTTCTAACCTGTTGCGT (site CCTAATACTAC) | 0.107
GGTGACCCTTGGGTTCTAACCTGTTGCGG (site GGTTACCCTCC) | 0.33
AAGATGTCTTGGGTTCTAACCTGTTGCTG (site TAGAAGTCTCA) | 0.0558
GTCTATGCTTGGGTTCTAACCTGTTGCGT (site GTCTAAGCTAA) | 0.0746
TTCTCGCCTTGGGTTCTAACCTGTTGCCT (site TTCTCGCCTAG) | 0.576
CTAACCTCTTGGGTTCTAACCTGTTGCTT (site CTAACCTCTTA) | 0
ACCTGACCTTGGGTTCTAACCTGTTGCCT (site ACCTGCCCTAG) | 0.0303
GGCGCGTCTTGGGTTCTAACCTGTTGCAT (site GGAGCGTCTAC) | 0.0291
TAACCTACTTGGGTTCTAACCTGTTGCCT (site TAACCTTCTAG) | 0.0774
TTATGAGCTTGGGTTCTAACCTGTTGCCG (site ATATGAGCTTG) | 0.012
ATGCTAACTTGGGTTCTAACCTGTTGCCT (site ATGCTAACTAG) | 1.62
TCAAGACCTTGGGTTCTAACCTGTTGCCT (site TCAAGACCTAG) | 0.617
AAACTAACTTGGGTTCTAACCTGTTGCCT (site ACACTAACTAG) | 0.167

Sequence | recombinant barcode read abundance (log10)
ATATGGACTTGGGTTCTAACCTGTTGCTA (site ATACGGACTTA) | 1.34
CGCGGTCCTTGGGTTCTAACCTGTTGCCT (site CGCGTTCCTAG) | 0.084
CGCTGGCCTTGGGTTCTAACCTGTTGCTT (site CGCTGGCCTAA) | 0.162
GGATTCTCTTGGGTTCTAACCTGTTGCCT (site GGACTCACTAG) | 0.0575
CCAGGTACTTGGGTTCTAACCTGTTGCCT (site TCAGGTACTAG) | 0.182
CCTTGTCCTTGGGTTCTAACCTGTTGCAG (site CGTTGTCCTTT) | 0.144
AGTCCCGCTTGGGTTCTAACCTGTTGCCA (site AGTCCCGCTTG) | 1.67
ATGGCCTCTTGGGTTCTAACCTGTTGCTA (site GCTTAAACTAG) | 0.0975
CAGCGAGCTTGGGTTCTAACCTGTTGCCG (site CAGCGAGCTCG) | 0.737
CGACGAGCTTGGGTTCTAACCTGTTGCGG (site CCACGAGCTCC) | 0.352
GAGCGGACTTGGGTTCTAACCTGTTGCCT (site GAGCAGACTAG) | 0.698
TAGACATCTTGGGTTCTAACCTGTTGCAT (site AAGACATCTAA) | 0.133
TGTGAGTCTTGGGTTCTAACCTGTTGCTT (site TGTGAGTCTAC) | 0.0217
GTCAATCCTTGGGTTCTAACCTGTTGCTG (site GTCAATCCTCA) | 1.49
CGGAGCCCTTGGGTTCTAACCTGTTGCGG (site CGGAGCCCTCC) | 1.82
GGGTCGGCTTGGGTTCTAACCTGTTGCGT (site GGGTCGGCTTC) | 0.0402
CAAGATGCTTGGGTTCTAACCTGTTGCCT (site CAAGATGCTAG) | 1.21
ATTGGTCCTTGGGTTCTAACCTGTTGCCT (site ATGGGTCCTAG) | 0.187
CTACGCTCTTGGGTTCTAACCTGTTGCAC (site CTACGCTCTGT) | 1.78
CGTGCGCCTTGGGTTCTAACCTGTTGCCT (site AAACTAGCTCC) | 0.0967
